Assays:
vaginal epithelium = assay: Allen-Doisy test (vaginal smears in ovariectomized rats); format: in vivo; conditions: single administration day 1, smears days 3-5, threshold = amount at which 50% of animals reach stage 3 (estrus)
Description: In the Allen-Doisy test, an evaluation of vaginal smears in ovariectomized rats is performed on days 3-5 (d3-d5) after the one-time administration on day 1 (d1 ) of the test substance. The following cycle stages are distinguished:
1=diestrus (leukocytes and nucleated epithelial cells),
2=proestrus (nucleated epithelial cells),
3=estrus (denucleated horny plaques),
4=metestrus (denucleated horny plaques, leukocytes, epithelial cells).
After oral or subcutaneous administration, estrogenically active substances result in the proliferation of the vaginal epithelium and the hornification of superficial cell layers. Regarded as a threshold value, is the amount of an estrogen at which 50% of the animals reach stage 3. Further, estrogens cause an increase of the uterus weight.

Estrogen Receptor = Estrogen Receptor Test; format: binding; conditions: KF not defined in the patent

Structure (SMILES) | Allen-Doisy Test p.o. [ED50] (vaginal epithelium) | Allen-Doisy Test s.c. [ED50] (vaginal epithelium) | Estrogen Receptor Test [KF] (Estrogen Receptor)
C[C@]12CC[C@@H]3c4ccc(O)cc4CC[C@H]3[C@@]13C=CC[C@]2(O)CC3 [14α,17α-(17^2 -Propeno)estra-1,3,5(10)-triene-3,17β-diol] | < 1 μg/Tier/Tag | 0,1-0,3 μg/Tier/Tag | 0,4
C#C[C@]1(O)CC[C@H]2[C@@H]3CCc4cc(O)ccc4[C@H]3CC[C@@]21C [Ethinylestradiol] | 3.0 μg/Tier/Tag | 0.1-0.3 μg/Tier/Tag | 0.5
